Measurements published in patent publication US20030092010A1, “Molecular switches” (priority 1999, published 2003).
*1 amine or outer side, *2 acyl side, *3 side chain or, on linkers, in order; H or OH if unused. Where a SMILES comes first, the peptide text is derived from it. Bridges are numbered along the chain shown (N, C = ends). Roman numbers before positions name the chains, in order. [ ]: non-standard residue; d: D form. Actinocin(9to1) = Cc1c2oc3c(C)ccc(C(=O)[*:1])c3nc-2c(C(=O)[*:2])c(N)c1=O; NMeV = CN[C@H](C(=O)O)C(C)C; Sar = CNCC(=O)O

Columns and labels:
[1] = system: DNA sequence AAAAAGGCG; assay: phage ELISA: zinc finger phage binding to DNA target site in presence and absence of distamycin A; settings: FIG. 1; phage clone 3 (3/2F) and clone 4 (4/EF)
[2] = system: DNA target AAAAAGCGGAAAAA; assay: dissociation of zinc finger phage from DNA target by distamycin A; type: binding
Description: (§1) This example describes phage that bound DNA targets with higher affinity in the absence of ligand. These phage were isolated using either: (a) the same method as in example 1.1, or (b) by selection in the absence of small molecule and phage elution from DNA using a small molecule.
(§2) Phage selection is over 4 rounds. Binding reactions contain […] biotinylated DNA site immobilised on 50 mg streptavidin coated beads (Dynal) and a 1 ml solution of ;zinc finger phage library (as described in 1.1) Reactions were incubated for 1 h on a rolling platform. After this time, beads were washed 20 times as described in 1.1 and finally phage were eluted from the beads over 5 minutes using a solution containing ligand (10 μM Distamycin A, or 1 μM Actinomycin D in PBS/Zn).
Some phage isolated by either of the above methods (a or b) bound DNA in the absence of ligand but could be displaced by concentrations of distamycin A at 10 μM and actinomycin D at 1 μM. The distamycin sensitive clone was selected using the DNA target AAAAAGCGGAAAAA and its helices were sequenced as: […]

[3] = system: CAT reporter gene downstream of the sequence AAAAAAGGCG; assay: transient transfection CAT reporter assay with zinc finger-HSV VP16 fusion; type: cell-based; settings: in the presence of Distamycin A; zinc finger-HSV VP16 fusion cotransfected
Text: A reporter system is produced which produces a reporter signal conditionally depending on the binding of the zinc finger DNA binding molecule to its target DNA sequence.
A transient transfection system using zinc finger transcription factors is produced as described in Choo, Y., et al., (1997) J. Mol. Biol 273:525-532. This system comprises an expression plasmid which produces a phage-selected zinc finger fused to the activation domain of HSV VP 16. and a reporter plasmid which contains the recognition sequence of the zinc finger upstream of a CAT reporter gene.
Thus, a zinc finger which recognises the DNA sequence AAAAAAGGCG is selected by phage display as described in Example 1. By the method of the preceding examples said zinc finger is used to construct transcription factors as described above.
A transient expression experiment is conducted, wherein the CAT reporter gene on the reporter plasmid is placed downstream of the sequence AAAAAAGGCG. The reporter plasmid is cotransfected with a plasmid vector expressing the zinc finger-HSV fision under the control of a constitutive promoter. No activation of CAT gene expression is observed.

[4] = system: DNA sequence AGCTTGGCG; assay: phage ELISA: zinc finger phage binding to DNA target in presence and absence of actinomycin D; settings: FIG. 2; phage AD clone 1 and 6
Description: Essentially the method was the same as used in the previous section using four rounds of a preselection step followed by a selection step, washing and elution. Differences in the method are described. The preselection step comprised of 7.5 μmol of biotinylated DNA target site immobilised on 18.75 μl streptavidin coated beads (Dynal) in a 100 μl mixture containing 4 μl phage library 96 μl PBS, 2% Marvel. 1% Tween-20. 50 μM ZnCl2 for 1 hour at room temperature with constant mixing. Phage selections were made in streptavidin coated tubes with the phage supernatant, 5 nM biotinylated target DNA, 10 μM actinomycin D in the presence of 1 μg poly [d(I-C)] competitor. The selections were incubated for 1 hour at room temperature. The bound phage were washed and eluted as described above.
ELISA was performed as described above but using 5 nM biotinylated target DNA. 0.25 μg poly[d(I−C)] competitor in the assay and 10 μM actinomycin D where appropriate. Phage were sequenced using Big Dye Terminator Cycle Sequencing Kit (Perkin Elmer Biosystems) and automated sequencing.

[5] = system: DNA target AGCTTGGCG; assay: dissociation of zinc finger phage from DNA target by actinomycin D; type: binding
Description: as §1, §2
The actinomycin D sensitive clone was selected with the DNA target AGCTTGGCG and its helices were sequenced as: […]

[6] = phage bound DNA in the absence of ligand

SMILES: Cn1cc(NC(=O)c2cc(NC(=O)c3cc(NC=O)cn3C)cn2C)cc1C(=O)NCCC(=N)N [Distamycin A]
- effect of Distamycin A concentration on binding of phage to the DNA sequence AAAAAGGCG [1]: causes phage binding to nucleic acid
- dissociation / displacement of phage from DNA by distamycin A ([2]; FIG. 6, distamycin sensitive clone): dissociated from the DNA
- distamycin A concentration at which DNA-bound phage could be displaced [2, 6]: 10 µM
- CAT reporter gene expression [3]: CAT expression is observed

SMILES: Cc1c2oc3c(C)ccc(C(=O)N[C@@H]4C(=O)N[C@H](C(C)C)C(=O)N5CCC[C@H]5C(=O)N(C)CC(=O)N(C)[C@@H](C(C)C)C(=O)O[C@@H]4C)c3nc-2c(C(=O)N[C@@H]2C(=O)N[C@H](C(C)C)C(=O)N3CCC[C@H]3C(=O)N(C)CC(=O)N(C)[C@@H](C(C)C)C(=O)O[C@@H]2C)c(N)c1=O [Actinomycin D] (I: T[dV]P[Sar][NMeV] / II: T[dV]P[Sar][NMeV]; ester I:1-I:C, II:1-II:C; linker I:N-II:N via Actinocin(9to1))
- effect of Actinomycin D concentration on binding of phage to the DNA sequence AGCTTGGCG [4]: causes phage binding to nucleic acid
- dissociation / displacement of phage from DNA by actinomycin D ([5]; FIG. 6, actinomycin D sensitive clone): dissociated from the DNA
- actinomycin D concentration at which DNA-bound phage could be displaced [5, 6]: 1 µM
